In PubChem BioAssay AID330 (DTP/NCI, 2004):
Where “and” joins values, the source holds several entries; their conditions need not be identical. Equal values may be shown once. Inconclusive results and toxic doses are left out. How the source made its calls: active means survival T/C of 150% or more; inactive means T/C below 125% in these data.

System: P388 leukemia ip, CD2F1 mice, survival T/C
Assay: NCI In Vivo Anticancer Drug Screen. Data for tumor model P388 Leukemia (intraperitoneal) in CD2F1 (CDF1) mice
Conditions: endpoint: median survival time, higher = longer survival
How it was run: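 Mice carrying the transplanted tumor received test compound or vehicle. Survival was recorded in each group, and the value is the treated-group measurement divided by that of the vehicle-treated control group.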

[1] = dose: 60.0 mg/kg/injection, schedule: Q01DX005 (ip), vehicle: saline with Tween-80
[2] = dose: 120.0 mg/kg/injection, schedule: Q01DX005 (ip), vehicle: saline with Tween-80
[3] = dose: 240.0 mg/kg/injection, schedule: Q01DX005 (ip), vehicle: saline with Tween-80
[4] = dose: 50.0 mg/kg/injection, schedule: Q01DX005 (ip), vehicle: saline
[5] = dose: 100.0 mg/kg/injection, schedule: Q01DX005 (ip), vehicle: saline
[6] = dose: 200.0 mg/kg/injection, schedule: Q01DX005 (ip), vehicle: saline
[7] = dose: 50.0 mg/kg/injection, schedule: Q01DX009 (ip), vehicle: saline
[8] = dose: 100.0 mg/kg/injection, schedule: Q01DX009 (ip), vehicle: saline
[9] = dose: 200.0 mg/kg/injection, schedule: Q01DX009 (ip), vehicle: saline

Measured: T/C

O=C(O)C(Cc1ccccc1)NC(c1ccccc1)P(=O)(O)O (centres undefined)
inactive: [1] 101 % of control | [2] 99 % of control | [3] 105 % of control

Cc1cc(OCc2nnc3n2S(=O)(=O)c2ccccc2N3c2ccccc2)ccc1Cl
inactive: dose: 100.0 mg/kg/injection, schedule: Q04DX002 (ip), vehicle: saline with Tween-80 92 % of control | dose: 200.0 mg/kg/injection, schedule: Q04DX002 (ip), vehicle: saline with Tween-80 92 % of control | dose: 400.0 mg/kg/injection, schedule: Q04DX002 (ip), vehicle: saline with Tween-80 87 % of control

COc1ccc(C(c2c(O)c3ccccc3oc2=O)c2c(O)c3ccccc3oc2=O)c(OC)c1
inactive: [1] 106 % of control | [2] 98 % of control | [3] 94 % of control

COC(=O)CC(N)C(=O)O (centres undefined)
inactive: dose: 12.5 mg/kg/injection, schedule: Q01DX005 (ip), vehicle: saline 97 % of control | dose: 25.0 mg/kg/injection, schedule: Q01DX005 (ip), vehicle: saline 89 % of control | [4] 99 % of control | [5] 97 % of control | [6] 94 % of control

CC(C)(C)c1cc2c(O)c(c1)Cc1cc(C(C)(C)C)cc(c1O)Cc1cc(C(C)(C)C)cc(c1O)Cc1cc(C(C)(C)C)cc(c1O)C2
inactive: dose: 50.0 mg/kg/injection, schedule: Q01DX005 (ip), vehicle: Klucel (hydroxypropylcellulose) (HPC) 100 % of control | dose: 100.0 mg/kg/injection, schedule: Q01DX005 (ip), vehicle: Klucel (hydroxypropylcellulose) (HPC) 102 % of control | dose: 200.0 mg/kg/injection, schedule: Q01DX005 (ip), vehicle: Klucel (hydroxypropylcellulose) (HPC) 96 % of control

COCCCN(Cc1cc(OC)c(OC)c(OC)c1)C(=S)Nc1cccc(SC)c1
inactive: [7] 101 % of control | [8] 100 % of control | [9] 99 % of control

O=C1CCSC(=S)N1N1CCN(N2C(=O)CCSC2=S)CC1
inactive: dose: 100.0 mg/kg/injection, schedule: Q01DX001 (ip), vehicle: Klucel (hydroxypropylcellulose) (HPC) 102 % of control | dose: 200.0 mg/kg/injection, schedule: Q01DX001 (ip), vehicle: Klucel (hydroxypropylcellulose) (HPC) 93 % of control

C=CC12COC(=O)C(=C)C1C1OC(=O)C(=C)C1CC2O (centres undefined)
inactive: dose: 0.75 mg/kg/injection, schedule: Q01DX009 (ip), vehicle: saline 120 % of control | dose: 1.5 mg/kg/injection, schedule: Q01DX009 (ip), vehicle: saline 123 % of control | dose: 3.0 mg/kg/injection, schedule: Q01DX009 (ip), vehicle: saline 118 % of control | dose: 6.0 mg/kg/injection, schedule: Q01DX009 (ip), vehicle: saline 120 % of control

CCN(CC)SC(=S)SN(CC)CC
inactive: dose: 50.0 mg/kg/injection, schedule: Q04DX003 (ip), vehicle: saline 98 % of control | dose: 100.0 mg/kg/injection, schedule: Q04DX003 (ip), vehicle: saline 96 % of control | dose: 200.0 mg/kg/injection, schedule: Q04DX003 (ip), vehicle: saline 98 % of control | dose: 400.0 mg/kg/injection, schedule: Q04DX003 (ip), vehicle: saline 104 % of control

O=C1C(N=Nc2ccccc2)Sc2nc3ccccc3n21 (centres undefined)
inactive: dose: 60.0 mg/kg/injection, schedule: Q01DX005 (ip), vehicle: Klucel (hydroxypropylcellulose) (HPC) 90 % of control | dose: 120.0 mg/kg/injection, schedule: Q01DX005 (ip), vehicle: Klucel (hydroxypropylcellulose) (HPC) 86 % of control

OC1CCC(O)C1 (centres undefined)
inactive: [4] 100 % of control | [5] 105 % of control | [6] 98 % of control

CN(c1ccccc1)P(=O)(N1CC1)N1CC1
active: dose: 12.5 mg/kg/injection, schedule: Q01DX009 (ip), vehicle: saline sonified 200 % of control | dose: 25.0 mg/kg/injection, schedule: Q04DX003 (ip), vehicle: saline with Tween-80 160 % of control and 195 % of control | dose: 37.5 mg/kg/injection, schedule: Q04DX003 (ip), vehicle: saline with Tween-80 186 % of control

CC1=C(C)NC(C)=C(C)N1
inactive: [7] 97 % of control | [8] 95 % of control | [9] 97 % of control

CC(O)(Cc1ccccc1)c1ccccc1 (centres undefined)
inactive: dose: 100.0 mg/kg/injection, schedule: Q04DX003 (ip), vehicle: saline with Tween-80 100 % of control | dose: 200.0 mg/kg/injection, schedule: Q04DX003 (ip), vehicle: saline with Tween-80 104 % of control | dose: 400.0 mg/kg/injection, schedule: Q04DX003 (ip), vehicle: saline with Tween-80 109 % of control
